In patent US4098798A, “Adriamycins, process for their preparation and uses thereof” (Societa' Farmaceutici Italia S.p.A., priority 1974, dated 1978):
≈ marks a conversion by molar mass, not a printed value. Read-outs that look alike come from different tables or passages of the source.

What was measured:
[1] = tested on: Ascites Sarcoma 180; test: Action on Ascites Sarcoma 180 in mice; assay type: in vivo, mice (Swiss CD 1); conditions: for Average Survival time: one day after inoculation, untreated = 100%
Procedure: The tests were carried out on groups of 10 mice (Swiss CD 1). The compounds under examination were administered intraperitoneally in varying doses to the test animals one day after intraperitoneal inoculation with 1 × 10^6 tumor cells per animal. The average survival time is given in Table 1 as a percentage of the survival time of untreated animals, which is arbitrarily designated as 100%. Also given in Table 1 are the number of long term survivors.

[2] = tested on: B-subtilis; test: inhibition zones on agar-B-subtilis plates, paper disc technique; assay type: cell-based; conditions: hydrochlorides, read-out: inhibition zone diameter; for zone of inhibition at 5 µg/disc: 5 μg; for zone of inhibition at 10 µg/disc: 10 μg; for zone of inhibition at 15 µg/disc: 15 μg; for zone of inhibition at 20 µg/disc: 20 μg
[3] = tested on: HeLa cells; test: Cloning Efficiency of Hela cells in vitro; assay type: cell-based; conditions: for IC50: Homo sapiens, HeLa, 50% inhibition of colonies
Procedure: After treatment for 2,8 or 24 hours, HeLa cells were seeded (200 cells per plate) and the number of colonies determined 8 days later.
The ID50 represents the dose which gives a 50% of inhibition of colonies.

[4] = tested on: MSV; test: Activity on MSV Production, focus assay; assay type: cell-based, Moloney Sarcoma Virus; conditions: 0.05 γ/ml, 3 days; control 4.7 × 10^4
Procedure: MSV infected cultures were treated for 3 days, and the virus yields were determined in the cell and supernatant medium by focus assay in the presence of leukemia virus.

[5] = cell proliferation in uninfected mouse embryo fibroblast cultures (cytotoxic action); assay type: cell-based; conditions: mouse embryo fibroblasts, treatment of 3 days, read-out: Cytotoxic Action ID50
Procedure: (§1) The test compounds were evaluated on mouse embryo fibroblast cultures infected with MSV and on similar uninfected cultures. After a treatment of 3 days, the inhibiting doses (ID50) were evaluated on cell proliferation in uninfected cultures (cytotoxic action) and on MSV foci formation in infected cultures (antiviral action).

[6] = tested on: Moloney Sarcoma Virus (MSV); test: MSV foci formation in infected mouse embryo fibroblast cultures (antiviral action); assay type: cell-based; conditions: 72 h, treatment of 3 days, read-out: Antiviral Action ID50
Procedure: as §1

[7] = tested on: Transplanted Gross Leukemia; test: Action on Transplanted Gross Leukemia in mice; assay type: in vivo, C3 H/He mice; conditions: first to fifth day
Source text: Inbred C3 H/He mice were intravenously inoculated with […] leukemia cells/mouse and treated, intravenously, from the first to the fifth day after inoculation with the compounds under examination.

[8] = Cardiotoxic activity in vitro, beating of myocardial cells; assay type: cell-based, mice; conditions: mouse, 0.5 μg/ml, read-out: decrease of beating
[9] = tested on: Solid Sarcoma 180; test: Activity on Solid Sarcoma 180 in mice; assay type: in vivo, Swiss CD 1 mice; conditions: for % Inhibition tumor growth: 10th day
[10] = tested on: L1210 Leukemia; test: Action on L1210 Leukemia in mice; assay type: in vivo, BDF1 mice; conditions: 5 times every two hours on days 1 and 2
Source text: Inbred BDF1 mice were intraperitoneally inoculated with 10^5 leukemia cells/mouse, and then treated (intraperitoneally) 5 times (every two hours) on days 1 and 2 after the tumor inoculation with varying doses of the compounds under examination.

[11] = Table 7, 2h treatment, read-out: DI50 (the source's name)
[12] = Table 7, 8h treatment, read-out: DI50 (the source's name)
[13] = Table 7, 24h treatment, read-out: DI50 (the source's name)
[14] = Table 8, 2h treatment, read-out: DI 50 (the source's name)
[15] = Table 8, 8h treatment, read-out: DI 50 (the source's name)
[16] = Table 8, 24h treatment, read-out: DI 50 (the source's name)
[17] = Table 7, 0.1 μg/ml, 8h, control 125
[18] = Table 7, 0.1 μg/ml, 24h, control 223
[19] = Table 7, 0.25 μg/ml, 8h, control 125
[20] = Table 7, 0.25 μg/ml, 24h, control 223
[21] = Table 7, 0.5 μg/ml, 8h, control 125
[22] = Table 7, 0.5 μg/ml, 24h, control 223
[23] = Table 7, 1 μg/ml, 2h, control 132
[24] = Table 7, 1 μg/ml, 8h, control 125
[25] = Table 7, 1 μg/ml, 24h, control 223
[26] = Table 8, 0.125 μg/ml, 2h, control 156
[27] = Table 8, 0.25 μg/ml, 8h, control 189
[28] = Table 8, 0.25 μg/ml, 24h, control 136
[29] = Table 8, 0.5 μg/ml, 2h, control 156
[30] = Table 8, 0.5 μg/ml, 8h, control 189
[31] = 1.25 mg/Kg subcutaneously every 2 hrs for 5 times at days 1 and 3
[32] = 1.75 mg/Kg subcutaneously every 2 hrs for 5 times at days 1 and 3
[33] = 2 mg/Kg intravenously twice a day on days 1,2,3
[34] = 2.45 mg/Kg subcutaneously every 2 hrs for 5 times at days 1 and 3
[35] = 2.5 mg/Kg intravenously once a day on days 1,2,3,4,5
[36] = 2.5 mg/Kg intravenously twice a day on days 1,2,3
[37] = 3 mg/Kg intravenously twice a day on days 1,2,3

COc1cccc2c1C(=O)c1c(O)c3c(c(O)c1C2=O)C[C@@](O)(C(=O)CO)C[C@@H]3O[C@H]1C[C@H](N)[C@@H](O)[C@H](C)O1 [4'-Epi-adriamycin (α-anomer), 7-0-(3'-amino-2',3',6'-trideoxy-α-L-arabinohexopyranosyl)-adriamycinone]
Long Term Survivors (after 60 days) ([1]; 0.5 mg/Kg i.p.): 0/10 | Average Survival time ([1]; 0.5 mg/Kg i.p.): 135% | Long Term Survivors (after 60 days) ([1]; 2 mg/Kg i.p.): 0/10 | Average Survival time ([1]; 2 mg/Kg i.p.): 184% | Long Term Survivors (after 60 days) ([1]; 10 mg/Kg i.p.): 1/8 | Average Survival time ([1]; 10 mg/Kg i.p.): 234% | zone of inhibition at 5 µg/disc [2]: 19 mm | zone of inhibition at 10 µg/disc [2]: 21 mm | zone of inhibition at 15 µg/disc [2]: 22 mm | zone of inhibition at 20 µg/disc [2]: 23 mm | IC50 [3, 11]: 0.85 µg/mL (≈ 1.56 µM) | IC50 [3, 12]: 0.7 µg/mL (≈ 1.29 µM) | IC50 [3, 13]: 0.36 µg/mL (≈ 0.662 µM) | IC50 [3, 14]: 5 µg/mL (≈ 9.2 µM) | IC50 [3, 15]: 0.2 µg/mL (≈ 0.368 µM) | IC50 [3, 16]: 0.2 µg/mL (≈ 0.368 µM) | Average Number of Colonies [3, 17]: 158 | Average Number of Colonies [3, 18]: 216 | Average Number of Colonies [3, 19]: 150 | Average Number of Colonies [3, 20]: 199 | Average Number of Colonies [3, 21]: 92 | Average Number of Colonies [3, 22]: 52 | Average Number of Colonies [3, 23]: 57 | Average Number of Colonies [3, 24]: 36 | Average Number of Colonies [3, 25]: 29 | Average Number of Colonies [3, 26]: 245 | Average Number of Colonies ([3]; Table 8, 0.125 μg/ml, 8h, control 189): 170 | Average Number of Colonies [3, 27]: 43 | Average Number of Colonies [3, 28]: 46 | Average Number of Colonies [3, 29]: 130 | Average Number of Colonies [3, 30]: 45 | Average Number of Colonies ([3]; Table 8, 0.5 μg/ml, 24h, control 136): 38 | Average Number of Colonies ([3]; Table 8, 1 μg/ml, 8h, control 189): 27 | Average Number of Colonies ([3]; Table 8, 1 μg/ml, 24h, control 136): 17

COc1cccc2c1C(=O)c1c(O)c3c(c(O)c1C2=O)CC(O)(C(=O)CO)CC3OC1CC(N)C(O)C(C)O1 (stereo not drawn) [4'-Epi-adriamycin]
virus yield (FFU/ml) [4]: 4 × 10^2 FFU/ml | CC50 at 72 h [5]: 0.01 µg/mL (≈ 0.0184 µM) | IC50 [6]: > 0.006 µg/mL

COc1cccc2c1C(=O)c1c(O)c3c(c(O)c1C2=O)C[C@@](O)(C(=O)CO)C[C@@H]3O[C@@H]1C[C@H](N)[C@@H](O)[C@H](C)O1 [4'-epi-adriamycin (β-anomer), 7-0-(3'-amino-2',3',6'-trideoxy-β-L-arabinohexopyranosyl)-adriamycinone]
zone of inhibition at 5 µg/disc [2]: 15 mm | zone of inhibition at 10 µg/disc [2]: 15.5 mm | zone of inhibition at 15 µg/disc [2]: 16 mm | zone of inhibition at 20 µg/disc [2]: 17 mm

COc1cccc2c1C(=O)c1c(O)c3c(c(O)c1C2=O)C[C@@](O)(C(=O)CO)C[C@@H]3O[C@H]1C[C@H](N)[C@H](O)[C@H](C)O1 [Adriamycin, 7-0-(3'-amino-2',3',6'-trideoxy-α-L-lyxohexopyranosyl)-adriamycinone]
Long Term Survivors (after 60 days) ([7]; 2 mg/Kg i.v.): 0/10 | Average Survival time, Exp. 1 ([7]; 2 mg/Kg i.v.): 183% | Long Term Survivors (after 60 days) ([7]; 2.5 mg/Kg i.v.): 0/20 | Average Survival time, Exp. 1 ([7]; 2.5 mg/Kg i.v.): 208% | Average Survival time, Exp. 2 ([7]; 2.5 mg/Kg i.v.): 186% | Long Term Survivors (after 60 days) ([7]; 2.75 mg/Kg i.v.): 0/10 | Average Survival time, Exp. 1 ([7]; 2.75 mg/Kg i.v.): 208% | Long Term Survivors (after 60 days) ([7]; 3 mg/Kg i.v.): 0/10 | Average Survival time, Exp. 2 ([7]; 3 mg/Kg i.v.): 186% | Long Term Survivors (after 60 days) ([7]; 3.6 mg/Kg i.v.): 0/10 | Average Survival time, Exp. 2 ([7]; 3.6 mg/Kg i.v.): 200% | Long Term Survivors (after 60 days) ([1]; 1 mg/Kg i.p.): 0/10 | Average Survival time ([1]; 1 mg/Kg i.p.): 169% | Long Term Survivors (after 60 days) ([1]; 5 mg/Kg i.p.): 2/10 | Average Survival time ([1]; 5 mg/Kg i.p.): 276% | CC50 at 72 h [5]: 0.01 µg/mL (≈ 0.0184 µM) | inhibition at 2 h [8]: 50% | zone of inhibition at 10 µg/disc [2]: 21 mm | zone of inhibition at 20 µg/disc [2]: 23 mm | IC50 [3, 11]: 0.17 µg/mL (≈ 0.313 µM) | IC50 [3, 12]: 0.14 µg/mL (≈ 0.258 µM) | IC50 [3, 13]: 0.016 µg/mL (≈ 0.0294 µM) | IC50 [3, 14]: 0.35 µg/mL (≈ 0.644 µM) | IC50 [3, 15]: 0.18 µg/mL (≈ 0.331 µM) | IC50 [3, 16]: 0.125 µg/mL (≈ 0.23 µM) | Average Number of Colonies ([3]; Table 7, 0.05 μg/ml, 24h, control 223): 76 | Average Number of Colonies ([3]; Table 7, 0.1 μg/ml, 2h, control 132): 79 | Average Number of Colonies [3, 17]: 73 | Average Number of Colonies [3, 18]: 48 | Average Number of Colonies ([3]; Table 7, 0.25 μg/ml, 2h, control 132): 46 | Average Number of Colonies [3, 19]: 38 | Average Number of Colonies [3, 20]: 20 | Average Number of Colonies ([3]; Table 7, 0.5 μg/ml, 2h, control 132): 42 | Average Number of Colonies [3, 21]: 16 | Average Number of Colonies [3, 22]: 0 | Average Number of Colonies [3, 23]: 21 | Average Number of Colonies [3, 24]: 8 | Average Number of Colonies [3, 25]: 0 | Average Number of Colonies [3, 26]: 166 | Average Number of Colonies ([3]; Table 8, 0.125 μg/ml, 24h, control 136): 69 | Average Number of Colonies ([3]; Table 8, 0.25 μg/ml, 2h, control 156): 92 | Average Number of Colonies [3, 27]: 28 | Average Number of Colonies [3, 28]: 43 | Average Number of Colonies [3, 29]: 27 | Average Number of Colonies [3, 30]: 14 | IC50 [6]: 0.005 µg/mL (≈ 0.0092 µM) | Average Survival time [9, 31]: 112% | Toxic Deaths (at 10th day) [9, 31]: 0/10 | % Inhibition tumor growth [9, 31]: 69% | Average Survival time [9, 32]: 87% | Toxic Deaths (at 10th day) [9, 32]: 1/10 | % Inhibition tumor growth [9, 32]: 75% | Average Survival time [9, 33]: 100% | Toxic Deaths (at 10th day) [9, 33]: 1/10 | % Inhibition tumor growth [9, 33]: 70% | Average Survival time [9, 34]: 32% | Toxic Deaths (at 10th day) [9, 34]: 6/10 | Toxic Deaths (at 10th day) [9, 35]: 0/10 | % Inhibition tumor growth [9, 35]: 54% | Average Survival time [9, 36]: 100% | Toxic Deaths (at 10th day) [9, 36]: 2/10 | % Inhibition tumor growth [9, 36]: 71% | Average Survival time [9, 37]: 57% | Toxic Deaths (at 10th day) [9, 37]: 6/10 | Toxic Deaths (at 10th day) ([9]; 3.5 mg/Kg intravenously once a day on days 1,2,3,4,5): 7/10 | Average Survival time ([10]; 0.75 mg/Kg i.p.): 160% | Average Survival time ([10]; 1 mg/Kg i.p.): 155% | Long Term Survivors (after 60 days) ([10]; 1 mg/Kg i.p.): 1/10 | Average Survival time ([10]; 1.25 mg/Kg i.p.): 175%
